# From patent US7763615B2, “Ecteinascidin analogs for use as antitumour agents” (priority 2001, dated 2010)
# Where two headings read alike, the source gives them in different places.
# Tests used:
# Assay type in all cases: cell-based
# A549 = assay: cells; details: Homo sapiens, A549, 48 h; for GI50: read-out: GI50; for IC (TGI): read-out: TGI
# Source text: (§1) The finality of these assays is to interrupt the growth of a “in vitro” tumor cell culture by means of a continued exhibition of the cells to the sample to be testing.
# (§2) A colorimetric type of assay, using sulphorhodamine B (SRB) reaction has been adapted for a quantitative measurement of cell growth and viability [following the technique described by Philip Skehan, et al. (1990), New colorimetric cytotoxicity assay for anticancer drug screening, J. Natl. Cancer Inst., 82:1107-1112]
# (§3) This form of the assay employs 96 well cell culture microplates of 9 mm diameter (Faircloth, 1988; Mosmann, 1983). Most of the cell lines are obtained from American Type Culture Collection (ATCC) derived from different human cancer types.
# (§4) Cells are maintained in RPMI 1640 10% FBS, supplemented with 0.1 g/l penicillin and 0.1 g/l streptomycin sulphate and then incubated at 37° C., 5% CO2 and 98% humidity. For the experiments, cells were harvested from subconfluent cultures using trypsin and resuspended in fresh medium before plating.
# (§5) Cells are seeded in 96 well microtiter plates, at 5×10^3 cells per well in aliquots of 195 μl medium, and they are allowed to attach to the plate surface by growing in drug free medium for 18 hours. Afterward, samples are added in aliquots of 5 μl in a ranging from 10 to 10^−8 μg/ml, dissolved in DMSO/EtOH/PBS (0.5:0.5:99). After 48 hours exposure, the antitumor effect are measured by the SRB methodology: cells are fixed by adding 50 μl of cold 50% (wt/vol) trichloroacetic acid (TCA) and incubating for 60 minutes at 4° C. Plates are washed with deionized water and dried. One hundred μl of SRB solution (0.4% wt/vol in 1% acetic acid) is added to each microtiter well and incubated for 10 minutes at room temperature. Unbound SRB is removed by washing with 1% acetic acid. Plates are air dried and bound stain is solubilized with Tris buffer. Optical densities are read on a automated spectrophotometric plate reader at a single wavelength of 490 nm.
# (§6) The values for mean+/− SD of data from triplicate wells are calculated. Some parameters for cellular responses can be calculated: GI=growth inhibition, TGI=total growth inhibition (cytostatic effect) and LC=cell killing (cytotoxic effect).
# HT29 = assay: cells; details: Homo sapiens, HT-29, 48 h
# Source text: as §1, §2, §3, §4, §5, §6
# H-MEC-1 = assay: Inhibition of cells growth by colorimetric assay (SRB), H-MEC-1; details: Homo sapiens, H-MEC-1, 48 hours exposure, SRB; for GI50 / IC (TGI): HMEC-1, 48 h; for CC50: HMEC-1, read-out: LC50 (the source's name)
# Source text: as §1, §2, §3, §4, §5, §6
# [1] = A549, 48 hours exposure, SRB, read-out: LC50 (the source's name)
# [2] = HT29, 48 hours exposure, SRB, read-out: LC50 (the source's name)
Compound,"GI50 (A549; A549, 48 hours exposure, SRB)","IC (TGI) (A549; A549, 48 hours exposure, SRB)","CC50 (A549; read-out: LC50, A549, 48 hours exposure, SRB)","GI50 (HT29; HT29, 48 hours exposure, SRB)","IC (TGI) (HT29; HT29, 48 hours exposure, SRB)","CC50 (HT29; read-out: LC50, HT29, 48 hours exposure, SRB)",CC50 (A549; [1]),CC50 (HT29; [2]),GI50 (H-MEC-1),IC (TGI) (H-MEC-1),CC50 (H-MEC-1)
C=COC(=O)Oc1c(OC)c(C)cc2c1[C@@H]1C3[C@@H]4SC[C@]5(C(=O)COC[C@@H](c6c7c(c(C)c(OC(C)=O)c64)OCO7)N3[C@@H](C#N)[C@H](C2)N1C)c1[nH]c2ccccc2c1CCN5C(=O)OC=C (stereo partly drawn) [Compound 23],118 nM,1260 nM,11100 nM,247 nM,11100 nM,11100 nM,–,–,–,–,–
C=CCOc1c(OC)c(C)cc2c1[C@@H]1C3[C@@H]4SC[C@]5(NCCc6c5[nH]c5ccccc65)C(=O)COC[C@@H](c5c6c(c(C)c(OC(C)=O)c54)OCO6)N3[C@@H](C#N)[C@H](C2)N1C (stereo partly drawn) [Compound 24],12400 nM,12400 nM,–,12400 nM,12400 nM,–,12400 nM,12400 nM,–,–,–
C=CCOc1c(OC)c(C)cc2c1[C@@H]1C3[C@@H]4SC[C@]5(C(=O)COC[C@@H](c6c7c(c(C)c(OC(C)=O)c64)OCO7)N3[C@@H](C#N)[C@H](C2)N1C)c1[nH]c2ccccc2c1CCN5CC=C (stereo partly drawn) [Compound 25],11800 nM,11800 nM,–,11800 nM,11800 nM,–,11800 nM,11800 nM,–,–,–
C=CCOc1c(OC)c(C)cc2c1[C@@H]1C3[C@@H]4SC[C@]5(C(=O)COC[C@@H](c6c7c(c(C)c(OC(C)=O)c64)OCO7)N3[C@@H](O)[C@H](C2)N1C)c1[nH]c2ccccc2c1CCN5CC=C (stereo partly drawn) [Compound 49],2640 nM,4970 nM,–,4500 nM,12600 nM,–,9370 nM,12600 nM,1990 nM,4120 nM,8540 nM
CCCC(=O)Oc1c(C)c2c(c3c1[C@H]1SC[C@]4(NCCc5c4[nH]c4ccccc54)C(=O)COC[C@@H]3N3C1[C@H]1c4c(cc(C)c(OC)c4O)C[C@@H]([C@@H]3C#N)N1C)OCO2 (stereo partly drawn) [Compound 52],47 nM,126 nM,–,79.3 nM,12600 nM,–,943000 nM,12600 nM,347 nM,6.95 nM,12.6 nM
COc1c(C)cc2c(c1O)[C@@H]1C3[C@@H]4SC[C@]5(NCCc6c5[nH]c5ccccc65)C(=O)COC[C@@H](c5c6c(c(C)c(OC(=O)CCCl)c54)OCO6)N3[C@@H](C#N)[C@H](C2)N1C (stereo partly drawn) [Compound 53],261 nM,784 nM,–,309 nM,1230 nM,–,12200 nM,12300 nM,132 nM,12300 nM,12300 nM
COc1c(C)cc2c(c1O)[C@@H]1C3[C@@H]4SC[C@]5(NCCc6c5[nH]c5ccccc65)C(=O)COC[C@@H](c5c6c(c(C)c(OC(=O)C(F)(F)F)c54)OCO6)N3[C@@H](C#N)[C@H](C2)N1C (stereo partly drawn) [Compound 56],9.3 nM,236 nM,–,47.4 nM,12200 nM,–,3790 nM,12200 nM,4.17 nM,9.65 nM,378 nM
COc1c(C)cc2c(c1OC(=O)OC(C)(C)C)[C@@H]1C3[C@@H]4SC[C@]5(NCCc6c5[nH]c5ccccc65)C(=O)COC[C@@H](c5c6c(c(C)c(OC(=O)OC(C)(C)C)c54)OCO6)N3[C@@H](C#N)[C@H](C2)N1C (stereo partly drawn) [Compound 58],89.1 nM,1340 nM,–,230 nM,10800 nM,–,10800 nM,10800 nM,10.2 nM,10800 nM,10800 nM
C=COC(=O)Oc1c(C)c2c(c3c1[C@H]1SC[C@]4(NCCc5c4[nH]c4ccccc54)C(=O)COC[C@@H]3N3C1[C@H]1c4c(cc(C)c(OC)c4O)C[C@@H]([C@@H]3C#N)N1C)OCO2 (stereo partly drawn) [Compound 59],2.66 nM,2260 nM,–,3.8 nM,18.4 nM,–,4980 nM,12600 nM,4 nM,12.6 nM,12600 nM
CCCCCCCC(=O)Oc1c(C)c2c(c3c1[C@H]1SC[C@]4(NCCc5c4[nH]c4ccccc54)C(=O)COC[C@@H]3N3C1[C@H]1c4c(cc(C)c(OC)c4O)C[C@@H]([C@@H]3C#N)N1C)OCO2 (stereo partly drawn) [Compound 61],11800 nM,11800 nM,–,11800 nM,11800 nM,–,11800 nM,11800 nM,394 nM,805 nM,3400 nM
CCCC(=O)Oc1c(C)c2c(c3c1[C@H]1SC[C@]4(NCCc5c4[nH]c4ccccc54)C(=O)COC[C@@H]3N3C1[C@H]1c4c(cc(C)c(OC)c4O)C[C@@H]([C@@H]3O)N1C)OCO2 (stereo partly drawn) [Compound 63],3.12 nM,9.53 nM,–,3.88 nM,12.8 nM,–,3030 nM,12800 nM,2.72 nM,12.8 nM,12800 nM
C=CCOC(=O)Oc1c(C)c2c(c3c1[C@H]1SC[C@]4(NCCc5c4[nH]c4ccccc54)C(=O)COC[C@@H]3N3C1[C@H]1c4c(cc(C)c(OC)c4O)C[C@@H]([C@@H]3O)N1C)OCO2 (stereo partly drawn) [Compound 64],1.64 nM,6.83 nM,–,1.91 nM,12.5 nM,–,110 nM,12500 nM,0.31 nM,12.5 nM,12500 nM
COc1c(C)cc2c(c1O)[C@@H]1C3[C@@H]4SC[C@]5(NCCc6c5[nH]c5ccccc65)C(=O)COC[C@@H](c5c6c(c(C)c(OC(=O)OC(C)(C)C)c54)OCO6)N3[C@@H](O)[C@H](C2)N1C (stereo partly drawn) [Compound 65],2.05 nM,6.3 nM,–,0.856 nM,20.5 nM,–,47.9 nM,12300 nM,0.613 nM,43.5 nM,12300 nM
COc1c(C)cc2c(c1OC(C)(C)C)[C@@H]1C3[C@@H]4SC[C@]5(NCCc6c5[nH]c5ccccc65)C(=O)COC[C@@H](c5c6c(c(C)c(OC(=O)OC(C)(C)C)c54)OCO6)N3[C@@H](O)[C@H](C2)N1C (stereo partly drawn) [Compound 66],20.9 nM,57.5 nM,–,28 nM,113 nM,–,376 nM,11000 nM,20.7 nM,80.4 nM,11000 nM
C=COC(=O)Oc1c(C)c2c(c3c1[C@H]1SC[C@]4(NCCc5c4[nH]c4ccccc54)C(=O)COC[C@@H]3N3C1[C@H]1c4c(cc(C)c(OC)c4O)C[C@@H]([C@@H]3O)N1C)OCO2 (stereo partly drawn) [Compound 67],0.455 nM,2.86 nM,–,1.9 nM,128 nM,–,128 nM,12800 nM,0.521 nM,128 nM,12800 nM
